The text below walks through data of patent US12594284B2, “Combination of micronutrients to stimulate the endogenous production of hydrogen sulfide (H2S)” (priority 2020, dated 2026).

In one test the test system is reductive stress. The test can be described thus: Reductive stress induced by vitamin C in healthy male subjects (plasma NADH, erythrocyte GSH). It counts as in vivo, human. The following applies: vitamin C 2 gr per day alone, 1 week. The source says:
Vitamin C caused a subclinical reductive stress as reported by a 40% increase of plasma NADH and 31% and 63% increase of erythrocyte GSH and GSH to GSSG ratio, respectively. […] Thus, the aforementioned composition prevented the reductive stress induced by a powerful reducing agent.

In test [1] the test system is endogenous production of H2S (CBS, CSE, 3MST). The test can be described thus: Inventor's observations on administration of the micronutrients to humans (H2S production markers, redox, homocysteine, insulin resistance). It counts as in vivo, human. The note with it: for triggering of the H2S system by form of vitamin B6: subjects possibly with genetic weakness of vitamin B6 activation and recycling.

Test [2] has the same test system. The following applies: subjects with chronically low-vitamin B6 status; cited from earlier work.
The test system of test [3] is blood pressure of pre-hypertensive patients. The note with it: cited from earlier work.
Setting [4] is: taurine added to L-cystine supplementation.
Where [5] appears, read: taurine 1.6 gr per day, 12 weeks.
The mark [6] stands for this setting: vitamin B6 added to taurine and L-cystine supplementation.

Where only a bound is given, the exact number is not on record here.

For `O=C1O[C@H]([C@@H](O)CO)C(O)=C1O` [Vitamin C, vitamin C], in the test on reductive stress, the “increase of GSH to GSSG ratio” value is 63%, the “increase of erythrocyte GSH” value is 31% and the “increase of plasma NADH” value is 40%.

As for `N[C@@H](CS)C(=O)O` [cysteine], the H2S levels result in test [1] (isolated cysteine administration) is reported as “fail to increase H2S levels”.

Take `Cc1ncc(COP(=O)(O)O)c(C=O)c1O` [pyridoxal-5-phosphate]: the “triggering of the H2S system by form of vitamin B6” value in test [1] is listed as “responded normally”.

Consider `Cc1ncc(CO)c(CO)c1O` [pyridoxine, reference compound], for which, in test [1], the “triggering of the H2S system by form of vitamin B6” value is reported as “failed to trigger the system in some subjects”. In addition, in test [2], the “plasma concentrations of lanthionine and homolanthionine” value was “did not respond”.

As for `NCCS(=O)(=O)O` [taurine], in test [1] (setting [4]), the “daily amounts that do not produce any further added effect” value is recorded as greater than 2000 mg and the “daily dose at which increased H2S production compared to L-cystine alone is already measured” value is 100 mg per day. Further, the “expression of CBS and CSE” value in test [3] (human, in vivo) is “induced the expression of CBS and CSE”. Moreover, in test [3] (setting [5]), the “circulating H2S” value is recorded as “increase of circulating H2S”, the “reduction of diastolic blood pressure” value was 3.4 mm Hg and the “reduction of systolic blood pressure” value is 4.6 mm Hg.

As to `Cc1ncc(CO)c(CO)c1O.Cl` [vitamin B6], the CSE activity entry in test [1] (supra-physiological amounts of vitamin B6) was “effective in activating CSE activity”. In addition, in test [1] (setting [6]), the “daily amounts that do not produce any further added effect” value was greater than 100 mg; the “daily dose at which increased H2S production compared to L-cystine and taurine is already measured” value came out at 2 mg per day.
